Reference: US11534457B2, “Use of dextran sulfate” (priority 2017, dated 2022)

Columns and labels:
[1] = system: BT system [CD19^+ B cells and PBMC+(a-IgM and TCR ligands)]; experiment: BioMAP BT system; format: cell-based, Human
Description: In this study LMW-DS was characterized by profiling in the BioMAP® Diversity PLUS panel. The BioMAP® panel consists of human primary cell-based systems designed to model different aspects of the human body in an in vitro format. The 12 systems in the BioMAP® Diversity PLUS panel (Table 32) allow test agent characterization in an unbiased way across a broad set of systems modeling various human disease states. The BioMA®P systems are constructed with one or more primary cell types from healthy human donors, with stimuli, such as cytokines or growth factors, added to capture relevant signaling networks that naturally occur in human tissue or pathological conditions. Vascular biology is modeled in both a Th1 (3C system) and a Th2 (4H system) inflammatory environment, as well as in a Th1 inflammatory state specific to arterial smooth muscle cells (CASM3C system). Additional systems recapitulate aspects of the systemic immune response including monocyte-driven Th1 inflammation (LPS system) or T cell stimulation (SAg system), chronic Th1 inflammation driven by macrophage activation (IMphg system) and the T cell-dependent activation of B cells that occurs in germinal centers (BT system). The BE3C system (Th1) and the BF4T system (Th2) represent airway inflammation of the lung, while the MyoF system models myofibroblast-lung tissue remodeling. Lastly, skin biology is addressed in the KF3CT system modeling Th1 cutaneous inflammation and the HDF3CGF system modeling wound healing.
Four concentrations of LMW-DS (150 nM, 440 nM, 1.3 μM, 4 μM) were investigated in the BioMAP® Diversity PLUS panel by Eurofins.
Cell types and stimuli used in each system are as follows: 3C system [HUVEC+(IL-1β, TNFα and IFNγ)], 4H system [HUVEC+(IL-4 and histamine)], LPS system [PBMC and HUVEC+LPS (TLR4 ligand)], SAg system [PBMC and HUVEC+TCR ligands], BT system [CD19^+ B cells and PBMC+(a-IgM and TCR ligands)], BF4T system [bronchial epithelial cells and HDFn+(TNFα and IL-4)], BE3C system [bronchial epithelial cells+(IL-1β, TNFα and IFNγ)], CASM3C system [coronary artery smooth muscle cells+(IL-1β, TNFα and IFNγ)], HDF3CGF system [HDFn+(IL-1β, TNFα, IFNγ, EGF, bFGF and PDGF-BB)], KF3CT system [keratinocytes and HDFn+(IL-1β, TNFα, IFNγ and TGFβ)], MyoF system [differentiated lung myofibroblasts+(TNFα and TGFβ)] and /Mphg system [HUVEC and M1 macrophages+Zymosan (TLR2 ligand)].
Systems are derived from either single cell types or co-culture systems. Adherent cell types are cultured in 96 or 384-well plates until confluence, followed by the addition of PBMC (SAg and LPS systems). The BT system consists of CD19+ B cells co-cultured with PBMC and stimulated with a BCR activator and low levels of TCR stimulation. Test agents prepared in either DMSO (small molecules; final concentration 0.1%) or PBS (biologics) are added at the indicated concentrations 1-hr before stimulation, and remain in culture for 24-hrs or as otherwise indicated (48-hrs, MyoF system; 72-hrs, BT system (soluble readouts); 168-hrs, BT system (secreted IgG)). Each plate contains drug controls (e.g., legacy control test agent colchicine at 1.1 μM), negative controls (e.g., non-stimulated conditions) and vehicle controls (e.g., 0.1% DMSO) appropriate for each system. Direct ELISA is used to measure biomarker levels of cell-associated and cell membrane targets. Soluble factors from supernatants are quantified using either HTRF® detection, bead-based multiplex immunoassay or capture ELISA. Overt adverse effects of test agents on cell proliferation and viability (cytotoxicity) are detected by sulforhodamine B (SRB) staining, for adherent cells, and alamarBlue® reduction for cells in suspension. For proliferation assays, individual cell types are cultured at subconfluence and measured at time points optimized for each system (48-hrs: 3C and CASM3C systems; 72-hrs: BT and HDF3CGF systems; 96-hrs: SAg system). […]

[2] = system: /Mphg system [HUVEC and M1 macrophages+Zymosan (TLR2 ligand)]; experiment: BioMAP /Mphg system; format: cell-based, Human
Description: In this study LMW-DS was characterized by profiling in the BioMAP® Diversity PLUS panel. The BioMAP® panel consists of human primary cell-based systems designed to model different aspects of the human body in an in vitro format. The 12 systems in the BioMAP® Diversity PLUS panel (Table 32) allow test agent characterization in an unbiased way across a broad set of systems modeling various human disease states. The BioMA®P systems are constructed with one or more primary cell types from healthy human donors, with stimuli, such as cytokines or growth factors, added to capture relevant signaling networks that naturally occur in human tissue or pathological conditions. Vascular biology is modeled in both a Th1 (3C system) and a Th2 (4H system) inflammatory environment, as well as in a Th1 inflammatory state specific to arterial smooth muscle cells (CASM3C system). […]
Systems are derived from either single cell types or co-culture systems. […] Test agents prepared in either DMSO (small molecules; final concentration 0.1%) or PBS (biologics) are added at the indicated concentrations 1-hr before stimulation, and remain in culture for 24-hrs or as otherwise indicated (48-hrs, MyoF system; 72-hrs, BT system (soluble readouts); 168-hrs, BT system (secreted IgG)). […]

In the case of “low molecular weight dextran sulfate [LMW-DS]”, the IL-17A [1] was “decreased”, the IL-17F [1] was “decreased” and the “antiproliferative effects on B cells” value [1] was “without any antiproliferative effects”. The sIgG [1] was “decreased”, the Decreased biomarker activity ([1]; BT system) was “sIgG, sIL-17F” and the Increased biomarker activity ([1]; BT system) was “sIL-17A”. The Increased biomarker activity [2] was “IL-8, CD69”.
